For 91 molecules, AC40 results are on record in PubChem BioAssay AID743396 (Broad Institute, 2014).

Each structure is given as a SMILES string. Where “and” joins values, the source holds several entries; their conditions need not be identical. Equal values may be shown once. Calls of active or inactive are those of the source.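 How the source made its calls: active means fitted curve reaches a 40% rise in fluorescent cells at or below the top valid dose; inactive means opposite-direction effect, or the rest.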 Where only a bound is given, the exact number is not on record here.

One experiment deals with mTEFS fibroblasts autofluorescence, GFP-channel imaging, 3 days. Briefly: compound fluorescence in GFP channel, mTEFS cells – imaging, mTEFS fibroblasts, cherry-pick, artefact control for X-chromosome reactivation project, dose response (AID 743396).
Details: not given
With `CC1=CC(=Cc2sc3ccccc3[n+]2C)C=C(C)O1`, the AC40 was > 19.5 µM (inactive).

Still in this experiment, the particulars now being: cells pretreated with 5-aza-dC.
For `COc1ccc(C(=O)c2sc3nc(C)cc(-c4cccs4)c3c2N)cc1`, the AC40 is 14.5 µM.

Regarding `CCN1/C(=C/c2ccc3cc(C)ccc3[n+]2CC)Sc2cc(C)ccc21`, the AC40 was 6.21 µM.

On to `O=C(N/N=C\c1c(O)ccc2ccccc12)c1ccc(S(=O)(=O)N2CCCCC2)cc1`, for which the AC40 was 19.2 µM.

On to `O=C1c2ccccc2C(=O)C1c1ccccc1`, for which the AC40 is > 19.5 µM (inactive).

Take `Cc1ccc(NC(=O)/C=C/c2ccc([N+](=O)[O-])s2)c(C)c1`: the AC40 was 7.81 µM.

Turning to `COc1ccc(C(=O)c2sc3nc(C)cc(-c4cccs4)c3c2N)cc1OC`, the AC40 was 16.3 µM.

In the case of `Cn1c(=O)[nH]c(=O)c2c1nc(SCCN1CCOCC1)n2CCCc1ccccc1`, the AC40 was 10.9 µM.

As for `CN1/C(=C/C=C(C#N)C#N)C(C)(C)c2ccccc21`, the AC40 was 19.4 µM.

As for `CCCCN(C)C1=CC2=CC(=C(C#N)C#N)CCC2CC1` (stereo unspecified), the AC40 is 3.44 µM.

For the molecule `Nc1[nH]c2cc([N+](=O)[O-])ccc2c1-c1ccccn1`, the AC40 is 8.95 µM.

For `COc1ccc(N2CCN(C(=O)c3cc4c(s3)-c3ccccc3OC4)CC2)cc1`, the AC40 is > 19.5 µM (inactive).

For `COc1ccc2c(n1)Sc1nc3ccccc3nc1N2`, the AC40 is 12.5 µM.

In the case of `CC(C)CCN1C(=O)c2cccc3c(N)ccc(c23)C1=O`, the AC40 was 5.86 µM.

As to `CC(=O)[C@@]1(O)Cc2c(O)c3c(c(O)c2[C@H](O[C@H]2C[C@H](N)[C@H](O)[C@H](C)O2)C1)C(=O)c1ccccc1C3=O`, the AC40 is > 2.1 µM (inactive).

`CCC(CO)[n+]1c(C)cc(/C=C2\Sc3ccccc3N2Cc2ccccc2)cc1C` (stereo unspecified): the AC40 was 7.28 µM.

With `CCOC(=O)/C=c1\s/c(=C\c2ccc3cc(OC)ccc3c2)c(=O)n1CC(=O)NCc1ccc2c(c1)OCO2`, the AC40 is 4.43 µM.

Take `CCN(CC)c1ccc(/C=C(/C#N)C(=O)NCc2ccccc2)o1`: the AC40 is 5.55 µM.

Turning to `N#C/C(=C/c1ccc(-c2ccc(S(N)(=O)=O)cc2)o1)c1nc2ccccc2s1`, the AC40 is 2.25 µM.

For `Cc1cccc2cc3c(N)c(C(=O)N4CCCc5ccccc54)sc3nc12`, the AC40 is 10.2 µM.

Regarding `O=c1oc2cc(O)ccc2cc1-c1nc2c(s1)CCc1ccccc1-2`, the AC40 was 4.39 µM.

Regarding `Cc1cccc(NC(=O)/C=C/c2ccc([N+](=O)[O-])s2)c1`, the AC40 is 3.68 µM.

On to `CCN1CCc2c(sc(NC(=O)c3ccc(S(=O)(=O)N(CC)c4ccccc4)cc3)c2C(N)=O)C1`, for which the AC40 is 6.59 µM.

Take `CCCN1C(=O)S/C(=C\c2ccc(N3CCOCC3)o2)C1=O`: the AC40 was > 19.5 µM (inactive).

Regarding `CC(O)CN(CC(C)O)c1ccc2c(c1)Cc1cc([N+](=O)[O-])ccc1-2` (stereo unspecified), the AC40 was > 19.5 µM (inactive).

Regarding `CCOC(=O)/C(=C/C=C1\Sc2cc(C)c(C)cc2N1CC)C(C)=O`, the AC40 is 12.5 µM.

Regarding `O=[N+]([O-])c1ccc(/C=C/C2=NN(c3ccccc3)C(c3ccco3)C2)cc1` (stereo unspecified), the AC40 was 3.37 µM.

In the case of `Cc1n[nH]c(=S)n(/N=C/c2cccc([N+](=O)[O-])c2)c1=O`, the AC40 is > 19.5 µM (inactive).

Take `CCN1C(=O)[C@@H]2Cc3c([nH]c4ccccc34)C(c3cc(OC)c(OC)c(OC)c3)N2C1=S` (stereo partly specified): the AC40 was > 19.5 µM (inactive).

`COc1ccc(/C=C/C(=O)c2ccc([N+](=O)[O-])o2)cc1OC`: the AC40 is > 19.5 µM (inactive).

For `CC(NC(=O)/C(C#N)=C/c1ccc([N+](=O)[O-])o1)c1ccccc1` (stereo unspecified), the AC40 is > 19.5 µM (inactive).

As for `COc1ccc2nc(C)cc(NCc3ccc(F)cc3)c2c1`, the AC40 was 4.85 µM.

In the case of `COc1ccc(CCNC(=O)c2ccc([N+](=O)[O-])cc2)cc1`, the AC40 is 18.8 µM.

Take `CCOC(=O)Cn1c(=O)c(-c2cc(Br)ccc2N)nc2ccccc21`: the AC40 is > 19.5 µM (inactive).

As to `Cc1ccc(C(=O)N/C(=C/c2ccc(-c3ccc([N+](=O)[O-])cc3)o2)C(=O)NCCCN(C)C)cc1`, the AC40 was 5.7 µM.

With `CCCCNc1ccc2c3c(cccc13)C(=O)N(CCCC)C2=O`, the AC40 is 4.11 µM.

On to `Cc1nonc1NC(=O)CSc1nc2c(C)cccc2cc1C#N`, for which the AC40 was 9.02 µM.

`COc1cccc(C(=O)c2c(-c3ccccc3)ncc3cc(OC)c(OC)cc23)c1`: the AC40 is 19.4 µM.

As to `COc1ccccc1-[n+]1c(C)cc(/C=C2\Sc3ccccc3N2C)cc1C`, the AC40 is 3.52 µM.

`CCN1/C(=C\c2ccc3ccccc3[n+]2CC)Sc2cc(C)ccc21`: the AC40 is 0.582 µM.

In the case of `O=C(NCc1ccccc1)c1cccc2c1C(=O)c1ccc(/C=C/c3ccccc3)cc1S2(=O)=O`, the AC40 was 15 µM.

Turning to `C[n+]1c2cc(N)ccc2cc2ccc(N)cc21`, the AC40 was 0.522 µM and 0.378 µM.

As for `C/C(=N\Nc1ncnc2sc(C)c(C)c12)c1ccccn1`, the AC40 is 1.55 µM.

As for `c1ccc(-c2cnn3c(-c4ccccc4)c(-c4ccccc4)nc3n2)cc1`, the AC40 is 2.58 µM.

As for `C[C@@H]1CCCCO[C@H](CN(C)C(=O)Nc2ccc(C(F)(F)F)cc2)[C@H](C)CN([C@H](C)CO)C(=O)c2cc(NC(=O)CCC(F)(F)F)ccc2O1`, the AC40 was 17.4 µM.

`O=CNc1ccc2c3c(cccc13)-c1ccccc1-2`: the AC40 was 8.57 µM.

In the case of `Oc1ccc(/C=N/Nc2ccnc3cc(Cl)ccc23)c(O)c1`, the AC40 is > 19.5 µM (inactive).

On to `CCN1/C(=C/c2ccc3cc(C)cc(C)c3[n+]2CC)Sc2cc(C)ccc21`, for which the AC40 is 10.4 µM.

Turning to `COc1cc2c3nnc(-c4ccc(F)cc4)c-3cn(Cc3ccccc3F)c2cc1OC`, the AC40 was 2.46 µM.

Turning to `Nc1c(Br)cc2c3c(cccc13)-c1ccccc1-2`, the AC40 was > 19.5 µM (inactive).

As to `CN(C)S(=O)(=O)c1ccc2c(c1)/C(=C/c1cc3c([nH]1)CCCC3)C(=O)N2`, the AC40 was 3.17 µM.

Consider `Cc1cccc2cc3c(N)c(C(=O)N4CCc5ccccc54)sc3nc12`, for which the AC40 was 10.5 µM.

Turning to `Cc1ccc(Cl)c2c(N=Nc3ccccc3)c(O)[nH]c12`, the AC40 was > 19.5 µM (inactive).

Turning to `COc1cc2c3nnc(-c4ccc(F)cc4)c-3cn(Cc3cccc(C)c3)c2cc1OC`, the AC40 was 3.63 µM.

For `CCN1/C(=C/c2ccc3cc(C)ccc3[n+]2CC)Sc2ccccc21`, the AC40 is 0.395 µM.

On to `CC(=O)Nc1sc(/C(C#N)=C/c2ccc(Cl)c(Cl)c2)nc1-c1ccc(C)cc1`, for which the AC40 is 3.55 µM.

Turning to `N#Cc1c(-c2ccccc2F)cc(C2CC2)nc1SCC(=O)c1cccs1`, the AC40 is 9.82 µM.

Take `O=[N+]([O-])c1ccc(N2N=C(c3ccccc3)CC2c2ccccc2O)cc1` (stereo unspecified): the AC40 was 14.1 µM.

As for `COc1ccccc1N1N=C(c2ccc([N+](=O)[O-])cc2)CC1c1ccccc1` (stereo unspecified), the AC40 was 5.77 µM.

With `COc1cc2c3nnc(-c4ccccc4)c-3cn(Cc3ccccc3F)c2cc1OC`, the AC40 was 4.02 µM.

On to `CC1CN(C(=O)/C=C/c2ccc([N+](=O)[O-])s2)CC(C)O1` (stereo unspecified), for which the AC40 is 10.6 µM.

With `CN1CCc2c(sc(NC(=O)c3ccc(S(=O)(=O)N4CCc5ccccc54)cc3)c2C(N)=O)C1`, the AC40 was 18 µM.

`CCN1CCc2c(sc(NC(=O)c3ccc4ccccc4c3)c2C(N)=O)C1`: the AC40 is 3.45 µM.

For the molecule `CCN1CCc2c(sc(NC(=O)Nc3ccc(Cl)c(Cl)c3)c2C(N)=O)C1`, the AC40 was 0.558 µM.

As for `Cn1cc(C2=C(c3ccc(Cl)cc3Cl)C(=O)NC2=O)c2ccccc21`, the AC40 was 12.7 µM.

With `Cc1cc(C)c2cc3c(N)c(C(=O)Nc4c(C)[nH]c(=O)[nH]c4=O)sc3nc2c1`, the AC40 was > 19.5 µM (inactive).

For the molecule `N#C/C(=C/c1ccc(N2CCCCC2)o1)C(=O)NCCc1c[nH]c2ccccc12`, the AC40 is 5.61 µM.

With `Cc1cc2oc3ccc(NCCCn4ccnc4)cc3c(=O)c2cc1C`, the AC40 was 19.2 µM.

With `CCN(CC)c1ccc2cc(-c3nc(-c4ccc(OC)cc4)cs3)c(=O)oc2c1`, the AC40 was 0.0781 µM.

Regarding `Nc1c(C(=O)Nc2ccc(S(=O)(=O)N3CCCC3)cc2)sc2nc3cc4c(cc3cc12)CCC4`, the AC40 is 10.6 µM.

As for `Cc1ccc(-c2cn3nc(-c4ccccc4)c(-c4ccccc4)nc3n2)cc1`, the AC40 was 7.88 µM.

As for `Cc1cccc(-c2cccc3[nH]c4c(c23)CCN2C(=O)[C@H]3[C@H](C)ON(C)[C@H]3C[C@@H]42)c1`, the AC40 was 14.7 µM.

In the case of `CCc1cccc2cc3c(N)c(C(=O)Nc4ccc(S(=O)(=O)N5CCCC5)cc4)sc3nc12`, the AC40 is 7.09 µM.

Take `Nc1ccc2c3c(cccc13)-c1ccccc1-2`: the AC40 was 1.49 µM.

On to `N#CC(C#N)=C1C=C2C=C(N3CCCCCC3)CCC2CC1` (stereo unspecified), for which the AC40 is 6.6 µM.

`Cc1n[nH]c(=S)n1/N=C/c1ccc(-c2ccc(Cl)cc2)o1`: the AC40 is > 19.5 µM (inactive).

On to `N#C/C(=C/c1ccc(N2CCCCC2)o1)C(=O)Nc1ccc2ccccc2c1`, for which the AC40 was 1.53 µM.

With `C=CCN1C(=O)[C@@H]2Cc3c([nH]c4ccccc34)C(c3cc(OC)c(OC)c(OC)c3)N2C1=S` (stereo partly specified), the AC40 is 15.5 µM.

On to `COC1=CC(=O)c2nc(Cl)ccc2C1=O`, for which the AC40 is 18.5 µM.

Consider `CCN(CC)c1ccc(/C=C/c2cc(-c3ccccc3)c3ccccc3n2)cc1`, for which the AC40 is 12.8 µM.

On to `Nc1c(C(=O)c2cccs2)sc2nsc(SCCN3CCCCC3)c12`, for which the AC40 is 2.03 µM.

As to `CCN(CC)c1ccc2cc(C(=O)c3cccs3)c(=O)oc2c1`, the AC40 was 11.3 µM.

Regarding `Cc1cc(C)cc(NC(=O)/C=C/c2ccc([N+](=O)[O-])s2)c1`, the AC40 was 9.04 µM.

Turning to `COc1ccc(-[n+]2c(C)cc(/C=C3\Sc4ccccc4N3C)cc2C)cc1`, the AC40 is 1.58 µM.

For the molecule `CCN1/C(=C\c2ccc3cc(C)ccc3[n+]2CC)Sc2cc(C)c(C)cc21`, the AC40 is 15.7 µM.

Turning to `CN(C)c1ccc(/C=C(/C#N)C(=O)NCc2ccccc2)o1`, the AC40 is 14.7 µM.

Take `COc1ccc(C(=O)Nc2c(F)c(F)c(F)c(F)c2F)cc1OC`: the AC40 was > 19.5 µM (inactive).

For `N#C/C(=C\c1ccc([N+](=O)[O-])o1)c1nc2ccccc2[nH]1`, the AC40 was > 19.5 µM (inactive).

In the case of `C[C@H]1CN([C@@H](C)CO)S(=O)(=O)c2ccc(Br)cc2O[C@H]1CN(C)C(=O)c1cccnc1`, the AC40 is > 6.8 µM (inactive).

On to `NC(=O)c1c(NC(=O)c2ccccc2)sc2c1CCN(Cc1ccccc1)C2`, for which the AC40 is > 19.5 µM (inactive).

On to `CC[n+]1c(/C=C/C=C/N(C(C)=O)c2ccccc2)sc2cc(OC)ccc21`, for which the AC40 was 2.73 µM.
